Molecules are shown by their SMILES. Several values for one entry are separate records, joined by “and”; a condition that tells them apart may be missing. Identical values can stand only once. Like-named read-outs stand apart in the source and are kept apart here.

Series [1] in a line: in vitro. The conditions noted are these: hamster.
The test system of the next series is BHK-21 cells. The note with it: hamster.
The test system of series [2] is FMDV. It counts as cell-based, FMDV serotype A, A/TAI/NP05/2016 (NP05).
Series [3] deals with FMDV serotype A. Description: organism not typed. The note with it: BHK-21.
In the next series the target is FMDV 3C^pro (Foot-and-mouth disease virus, UniProt P03306). Description: cell-based. The note with it: for IC90: HEK-293T.
Sequence of FMDV 3C^pro (P03306 1650-1862 limits assumed): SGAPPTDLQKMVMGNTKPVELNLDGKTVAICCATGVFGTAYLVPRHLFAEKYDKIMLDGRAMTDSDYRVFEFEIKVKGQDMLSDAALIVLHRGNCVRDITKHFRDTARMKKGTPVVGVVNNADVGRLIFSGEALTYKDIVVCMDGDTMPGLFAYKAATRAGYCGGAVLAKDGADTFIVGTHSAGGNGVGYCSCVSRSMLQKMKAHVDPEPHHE
The subject of series [4] is FMDV. Format: cell-based, FMDV serotype A, A/TAI/NP05/2016 (NP05). The source holds these as a separate data set.
The next series concerns hepatitis B virus. The note with it: cited from earlier work.
Series [5] has as its system FMDV serotype A.
The test system of a further series is chikungunya virus. The conditions noted are these: cited from earlier work.
Series [6] is described as follows: in vitro. The note with it: human.
In series [7] the test system is FMDV serotype A. Format: cell-based, A/TAI/NP05/2016 (NP05).
Series [8] relates to IFN-antagonist activity of FMDV 3C^pro. It counts as cell-based, human.

A word on the EC50: it is the midpoint of the concentration-response curve. Broadly, the IC50 is the point on the concentration scale where inhibition reaches its midpoint. High values mean weaker potency, low ones greater potency. The term IC90 denotes the concentration at which the effect reaches the 90% level. In the case of `C=C1CC[C@@H]2[C@](C)(CO)[C@H](O)CC[C@@]2(C)[C@@H]1C/C=C1/C(=O)OC[C@H]1O` [AGL, andrographolide], the CC50 in “in vitro [1]” was 116.8 ± 0.03 µM. This molecule also had a CC10 in the series with BHK-21 cells of 94.55 ± 0.02 µM. For the same molecule, the Protection activity result in the series on FMDV [2] is on record as “neither extracellular virucidal nor protection activities”. For the same molecule, in the series with FMDV serotype A [3], the EC50 came out at 52.18 ± 0.01 µM. At FMDV 3C^pro, this molecule yielded a concentration for half-maximal inhibition (IC50) of 67.4 ± 0.81 µM and an IC90 of 267.2 ± 2.43 µM. Further, the Extracellular virucidal activity entry in the series with FMDV [4] is given as “neither extracellular virucidal nor protection activities”. The EC50 in the series with hepatitis B virus is 54.1 µM. Also, the “SI (CC50/EC50)” value with FMDV serotype A [5] amounted to 2.23. Besides, the EC50 in the series with chikungunya virus is 77.4 µM and 88 µM. Further, the CC50 in the series “in vitro [6]” was 453 ± 0.04 µM. In addition, in the series on FMDV serotype A [7], the “Viral nucleic acids (viral copy numbers)” value was “significantly decreased”. In series [8], the “Effect on IFN-antagonist activity of 3C^pro” value (shortened to “Effect”) is on record as “significantly derepressed the IFN-antagonist activity of the 3C^pro”; the “ISG15 mRNA expression” value is 52.93 fold-changes and 59.99 fold-changes; the “ISG56 mRNA expression” value is 72.73 fold-changes and 107.66 fold-changes; the “Mx-1 mRNA expression” value is 5.33 fold-changes and 6.98 fold-changes. In addition, in series [8], the “PKR mRNA expression” value is 6.22 fold-changes and 6.12 fold-changes.
As for `C=C1CC[C@@H]2[C@](C)(CO)[C@H](O)CC[C@@]2(C)[C@@H]1CCC1=CCOC1=O` [DAG, deoxyandrographolide], the CC50 in “in vitro [1]” was 211.5 ± 0.03 µM. In the series with BHK-21 cells, this molecule gave a CC10 of 81.05 ± 0.01 µM and a CC50 of 332.3 ± 0.09 µM. For the same molecule, the Protection activity result in the series with FMDV [2] is reported as “neither extracellular virucidal nor protection activities”. Further, in the series on FMDV serotype A [3], the EC50 came out at 36.47 ± 0.07 µM. Further, on FMDV 3C^pro, the IC50 was found to be 25.6 ± 1.41 µM and it took 123 ± 2.09 µM to reach the 90% level (IC90). Also, the Extracellular virucidal activity result in the series on FMDV [4] is listed as “neither extracellular virucidal nor protection activities”. The same molecule registered a CC50 in “in vitro [6]” of 651.4 ± 0.32 µM. Besides, the “Viral nucleic acids (viral copy numbers)” value with FMDV serotype A [7] is reported as “significantly decreased”. Also, in series [8], the “Effect” value is reported as “significantly derepressed the IFN-antagonist activity of the 3C^pro”; the “ISG15 mRNA expression” value is 62.36 fold-changes and 64.43 fold-changes; the “ISG56 mRNA expression” value was 84.77 fold-changes and 77.60 fold-changes; the “Mx-1 mRNA expression” value was 14.37 fold-changes and 13.04 fold-changes. Further, in [8], the “OAS-1 mRNA expression” value was 250.25 fold-changes and 244.76 fold-changes; the “PKR mRNA expression” value is 11.65 fold-changes and 12.84 fold-changes.
For `C=C1CC[C@@H]2[C@](C)(CO[C@@H]3O[C@H](CO)[C@@H](O)[C@H](O)[C@H]3O)CCC[C@@]2(C)[C@@H]1CCC1=CCOC1=O` [NEO, neoandrographolide], the CC50 in the series “in vitro [1]” was 332.3 ± 0.09 µM. In the series with BHK-21 cells, this molecule came in with a CC10 of 149.94 ± 0.21 µM and a CC50 of 211.5 ± 0.03 µM. In the series with FMDV [2], the Protection activity result is “neither extracellular virucidal nor protection activities”. In the series on FMDV serotype A [3], this molecule registered an EC50 above 500 µM. On FMDV 3C^pro, this molecule came in with an IC50 of 111 ± 2.04 µM and an IC90 of 635.8 ± 2.9 µM. Also, the Extracellular virucidal activity result with FMDV [4] is on record as “neither extracellular virucidal nor protection activities”. In addition, in the series with FMDV serotype A [5], a half-maximal effect (EC50) was put at 542.4 ± 0.2 µM and the “SI (CC50/EC50)” value stood at 0.38. In addition, the CC50 in the series “in vitro [6]” was determined as 914.2 ± 0.04 µM. The “Viral nucleic acids (viral copy numbers)” value in the series with FMDV serotype A [7] is given as “reduced viral replication to a lesser extent”. Further, in series [8], the “Effect” value is reported as “could not reduce the IFN suppression by 3C^pro”; the “ISG15 mRNA expression” value is 37.58 fold-changes and 32.91 fold-changes; the “ISG56 mRNA expression” value is 62.33 fold-changes and 55.39 fold-changes; the “Mx-1 mRNA expression” value was 2.19 fold-changes and 4.00 fold-changes. Moreover, in [8], the “OAS-1 mRNA expression” value was 106.88 fold-changes and 163.69 fold-changes; the “PKR mRNA expression” value is 3.65 fold-changes and 1.99 fold-changes.

The values above are taken from publication PMC9367459 (Animals : an Open Access Journal from MDPI, 2022).
